Values quoted from earlier work in patent US8877779B2 (priority 2007, dated 2014).

Details: Proc. Natl. Acad. Sci. U.S.A. 97: 4938-4943, 2000

Structure (SMILES): O=C1NCN(c2ccccc2)C12CCN([C@@H]1CC[C@H]3CCCc4cccc1c43)CC2 [Ro64-6198]
- bioavailability (BA): 4%
